In ChEMBL document CHEMBL1201862, “PubChem BioAssay data set” (2004):
Each block holds one compound with its values, some of them ahead of it. Activity calls are given as the source filed them.

What was measured:
Aurora kinase A = Aurora kinase A (Homo sapiens, UniProt O14965); format: functional;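 also: value from the Navigating the Kinome kinase panel profiling, panel entry STK6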
Aurora kinase B = Aurora kinase B (Homo sapiens, UniProt Q96GD4); format: functional
Insulin-degrading enzyme [1] = target: T1, Insulin-degrading enzyme (Homo sapiens, UniProt P14735); test: activators of recombinant IDE enzyme, dose response, counter-screen for IDE activator project, biochemical, fluorescence polarization (AID 588681)
T1 sequence (P14735 whole entry): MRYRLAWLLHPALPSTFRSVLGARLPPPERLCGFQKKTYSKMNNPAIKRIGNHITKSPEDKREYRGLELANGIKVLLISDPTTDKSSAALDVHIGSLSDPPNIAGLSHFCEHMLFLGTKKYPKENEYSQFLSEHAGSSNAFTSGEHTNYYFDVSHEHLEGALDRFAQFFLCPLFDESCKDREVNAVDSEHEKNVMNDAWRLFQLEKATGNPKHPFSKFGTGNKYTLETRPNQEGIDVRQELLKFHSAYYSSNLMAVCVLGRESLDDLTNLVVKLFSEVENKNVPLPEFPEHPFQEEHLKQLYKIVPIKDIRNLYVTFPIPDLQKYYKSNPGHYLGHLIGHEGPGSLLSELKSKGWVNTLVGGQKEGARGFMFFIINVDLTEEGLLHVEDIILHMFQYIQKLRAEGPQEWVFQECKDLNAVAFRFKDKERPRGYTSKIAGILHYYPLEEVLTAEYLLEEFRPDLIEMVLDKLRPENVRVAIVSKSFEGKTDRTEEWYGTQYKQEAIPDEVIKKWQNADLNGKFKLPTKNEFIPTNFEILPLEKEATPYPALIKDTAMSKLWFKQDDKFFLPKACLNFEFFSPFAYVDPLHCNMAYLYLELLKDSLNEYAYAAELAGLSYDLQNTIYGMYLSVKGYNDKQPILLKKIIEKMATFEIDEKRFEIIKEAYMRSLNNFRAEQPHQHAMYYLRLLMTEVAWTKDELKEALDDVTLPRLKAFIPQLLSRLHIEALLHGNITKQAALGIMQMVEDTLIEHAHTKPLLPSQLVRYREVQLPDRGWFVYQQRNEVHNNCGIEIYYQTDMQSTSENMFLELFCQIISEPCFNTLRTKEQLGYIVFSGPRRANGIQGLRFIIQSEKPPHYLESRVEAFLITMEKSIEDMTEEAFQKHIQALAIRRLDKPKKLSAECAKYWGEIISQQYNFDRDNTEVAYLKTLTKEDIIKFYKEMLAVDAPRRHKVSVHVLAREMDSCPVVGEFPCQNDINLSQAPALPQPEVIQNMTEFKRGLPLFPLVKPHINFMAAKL

Insulin-degrading enzyme [2] = target: T1, Insulin-degrading enzyme; test: activators of endogenous IDE in HEK cells, dose response, cell-based, fluorescence polarization (AID 588439); format: functional
HEK293 [3] = test: optical interference in Abeta FP readout, dose response, artefact control for IDE activator project, biochemical, fluorescence polarization (AID 588442); format: functional, cell-based; conditions: Homo sapiens
HEK293 [4] = test: HEK cell cytotoxicity by LDH release, dose response, cytotoxicity control for IDE activator project, fluorescence, HEK cells (AID 588440); format: functional, cell-based; conditions: Homo sapiens;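 also: cytotoxicity by LDH release measuring loss of membrane integrity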
[5] = target: T2, Probable nicotinate-nucleotide adenylyltransferase (Staphylococcus aureus (strain N315), UniProt P65502); format: functional, Staphylococcus aureus subsp. aureus N315;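 as to IC50 Mean: confirmatory dose-response retesting of NadD inhibitor hits first found in an ultra-high-throughput screen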
[6] = target: T2, Probable nicotinate-nucleotide adenylyltransferase; format: functional, Staphylococcus aureus subsp. aureus N315; conditions: read-out: IC50_Mean
Prothrombin = Prothrombin (Bos taurus, UniProt P00735); test: thrombin inhibition, dose response, biochemical, fluorescence polarization, uHTS hits (AID 602369); format: functional
[7] = target: 72 kDa type IV collagenase (Homo sapiens, UniProt P08253); test: Dose Response validation of uHTS RPN11 inhibitor hits using a MMP-2 Fluorescence assay.; format: functional
[8] = target: 26S proteasome non-ATPase regulatory subunit 14 (Homo sapiens, UniProt O00487); test: inhibition of proteasome subunit RPN11 – biochemical, fluorescence polarization, uHTS hits, confirmation (AID 602368); format: functional
26S proteasome non-ATPase regulatory subunit 14, sequence (O00487 whole entry): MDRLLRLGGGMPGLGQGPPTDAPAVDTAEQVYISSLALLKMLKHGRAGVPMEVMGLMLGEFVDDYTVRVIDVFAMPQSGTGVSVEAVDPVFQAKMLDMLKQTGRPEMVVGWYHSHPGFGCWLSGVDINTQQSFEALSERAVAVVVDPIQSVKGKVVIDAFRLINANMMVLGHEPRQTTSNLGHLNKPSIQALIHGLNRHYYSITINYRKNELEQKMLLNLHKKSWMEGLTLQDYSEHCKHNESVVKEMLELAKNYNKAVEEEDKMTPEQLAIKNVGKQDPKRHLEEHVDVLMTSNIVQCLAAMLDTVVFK

72 kDa type IV collagenase, sequence (P08253 whole entry): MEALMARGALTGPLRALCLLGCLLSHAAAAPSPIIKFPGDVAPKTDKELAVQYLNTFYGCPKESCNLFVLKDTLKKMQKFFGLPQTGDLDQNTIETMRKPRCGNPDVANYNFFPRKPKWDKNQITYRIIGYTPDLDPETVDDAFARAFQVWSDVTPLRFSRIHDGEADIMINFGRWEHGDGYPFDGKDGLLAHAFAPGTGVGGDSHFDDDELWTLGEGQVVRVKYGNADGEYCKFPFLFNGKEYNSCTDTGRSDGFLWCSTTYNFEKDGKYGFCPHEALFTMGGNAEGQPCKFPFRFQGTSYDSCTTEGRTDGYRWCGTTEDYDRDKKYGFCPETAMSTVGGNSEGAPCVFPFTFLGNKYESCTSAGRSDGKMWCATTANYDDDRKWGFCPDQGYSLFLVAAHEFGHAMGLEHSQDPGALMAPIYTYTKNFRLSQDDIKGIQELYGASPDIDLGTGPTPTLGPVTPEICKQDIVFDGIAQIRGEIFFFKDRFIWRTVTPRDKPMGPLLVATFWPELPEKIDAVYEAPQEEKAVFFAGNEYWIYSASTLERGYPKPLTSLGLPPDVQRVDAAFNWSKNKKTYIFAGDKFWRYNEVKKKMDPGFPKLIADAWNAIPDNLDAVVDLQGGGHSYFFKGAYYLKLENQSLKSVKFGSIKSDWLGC
Aurora kinase B, sequence (Q96GD4 whole entry): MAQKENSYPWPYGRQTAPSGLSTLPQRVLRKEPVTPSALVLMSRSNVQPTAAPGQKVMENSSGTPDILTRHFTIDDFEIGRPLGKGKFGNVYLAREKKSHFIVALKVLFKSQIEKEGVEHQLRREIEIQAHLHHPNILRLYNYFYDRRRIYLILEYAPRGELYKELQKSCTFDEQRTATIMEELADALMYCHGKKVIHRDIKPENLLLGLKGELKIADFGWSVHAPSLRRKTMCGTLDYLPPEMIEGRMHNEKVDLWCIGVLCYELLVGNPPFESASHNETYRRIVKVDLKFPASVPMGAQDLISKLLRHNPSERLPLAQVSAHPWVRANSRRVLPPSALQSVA
Aurora kinase A, sequence (O14965 whole entry): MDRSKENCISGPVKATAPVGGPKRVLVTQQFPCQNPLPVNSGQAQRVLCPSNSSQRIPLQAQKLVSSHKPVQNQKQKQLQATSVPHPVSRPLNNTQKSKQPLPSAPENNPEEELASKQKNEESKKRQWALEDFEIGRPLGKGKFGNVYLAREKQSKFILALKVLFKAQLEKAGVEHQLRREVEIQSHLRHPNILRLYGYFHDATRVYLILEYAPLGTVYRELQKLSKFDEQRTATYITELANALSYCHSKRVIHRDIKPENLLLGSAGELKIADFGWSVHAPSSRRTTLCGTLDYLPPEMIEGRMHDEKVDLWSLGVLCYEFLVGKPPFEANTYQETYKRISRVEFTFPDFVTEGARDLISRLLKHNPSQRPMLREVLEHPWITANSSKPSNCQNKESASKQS

Ki (Aurora kinase A): 0.1 µM (active) | Ki (Aurora kinase B): 0.00126 µM (active)
Compound: Nc1ncnc2sc3c(c12)-c1ccc(NC(=O)Nc2cccc(C(F)(F)F)c2)cc1CC3

Compound: O=C1CC2(CCCC2)CC(=O)N1c1ccccc1
EC50 (Insulin-degrading enzyme [1]): > 54.7 µM (inactive) | EC50 (Insulin-degrading enzyme [2]): > 54.7 µM (inactive) | EC50 (HEK293 [3]): > 55.9 µM (inactive) | IC50 (HEK293 [4]): > 89.1 µM (inactive)

IC50 [5]: 14.2 µM (active) | IC50 [6]: 31.3 µM (active) | IC50 (Prothrombin): 43.3 µM (active) | IC50 [7]: > 100 µM (inactive) | IC50 [8]: 36.2 µM (active)
Compound: Cc1ccccc1CN1C(=O)C(C)Sc2ccc(-c3ccco3)cc21 (stereo unspecified)
